Measurements taken from ChEMBL document CHEMBL1201862, “PubChem BioAssay data set” (2004).
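All cell lines were grown in 96-well plates and treated with compound for 48 hours. At the GI50, growth is halved.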 Active and inactive are the calls of the source. Rule as the data show it: active = GI50 up to about 1.1 µM and inactive = higher.

What was measured:
Test in all cases: NCI tumour cell line growth inhibition, 48 h
KM12 = system: KM12
SW-620 = system: SW-620
LOX IMVI = system: LOX IMVI
Hs-578T = system: Hs-578T
NCI-H522 = system: NCI-H522
SK-OV-3 = system: SK-OV-3
ACHN = system: ACHN
HCT-15 = system: HCT-15
NCI-H460 = system: NCI-H460
SK-MEL-2 = system: SK-MEL-2
OVCAR-5 = system: OVCAR-5
K562 = system: K562
CAKI-1 = system: CAKI-1
RXF 393 = system: RXF 393
SF-268 = system: SF-268
UACC-257 = system: UACC-257
BT-549 = system: BT-549
NCI-H226 = system: NCI-H226
MDA-MB-435 = system: MDA-MB-435

## CC(C)(C)c1ccc(C(C)(C)C)c(N2C(=O)[C@@H]3[C@@H]4C=C[C@@H](C4)[C@]3(C)C2=O)c1
KM12
  GI50: 36.6 µM (inactive)
SW-620
  GI50: 21.1 µM (inactive)
LOX IMVI
  GI50: 13.9 µM (inactive)
Hs-578T
  GI50: 24.2 µM (inactive)
NCI-H522
  GI50: 16.1 µM (inactive)
SK-OV-3
  GI50: > 100 µM (inactive)
ACHN
  GI50: 21.5 µM (inactive)
HCT-15
  GI50: 18.6 µM
NCI-H460
  GI50: 42 µM (inactive)
SK-MEL-2
  GI50: 20.6 µM (inactive)
OVCAR-5
  GI50: 86.5 µM (inactive)
K562
  GI50: 26.8 µM (inactive)
CAKI-1
  GI50: 22.2 µM (inactive)
RXF 393
  GI50: 15.5 µM (inactive)
SF-268
  GI50: 27.9 µM (inactive)
UACC-257
  GI50: 23.1 µM (inactive)
BT-549
  GI50: 22.4 µM (inactive)
NCI-H226
  GI50: 26.9 µM (inactive)
MDA-MB-435
  GI50: 15.5 µM (inactive)

## Cc1c(-c2ccccc2)[nH]n(C2=NCCN2)c1=O
KM12
  GI50: > 100 µM (inactive)
SW-620
  GI50: > 100 µM (inactive)
LOX IMVI
  GI50: > 100 µM (inactive)
Hs-578T
  GI50: > 100 µM (inactive)
NCI-H522
  GI50: > 100 µM (inactive)
SK-OV-3
  GI50: > 100 µM (inactive)
ACHN
  GI50: > 100 µM (inactive)
HCT-15
  GI50: > 100 µM
NCI-H460
  GI50: 78.7 µM (inactive)
SK-MEL-2
  GI50: > 100 µM (inactive)
OVCAR-5
  GI50: > 100 µM (inactive)
K562
  GI50: > 100 µM (inactive)
CAKI-1
  GI50: > 100 µM (inactive)
RXF 393
  GI50: > 100 µM (inactive)
SF-268
  GI50: > 100 µM (inactive)
UACC-257
  GI50: > 100 µM (inactive)
BT-549
  GI50: > 100 µM (inactive)
NCI-H226
  GI50: 52.8 µM (inactive)
MDA-MB-435
  GI50: > 100 µM (inactive)

## Cc1cc2c3c(ccc4[nH]cc(c43)CN2c2ccc(NS(C)(=O)=O)cc2)n1
KM12
  GI50: > 100 µM (inactive)
SW-620
  GI50: > 100 µM (inactive)
LOX IMVI
  GI50: > 100 µM (inactive)
Hs-578T
  GI50: > 100 µM (inactive)
NCI-H522
  GI50: 5.75 µM (inactive)
SK-OV-3
  GI50: 32.3 µM (inactive)
ACHN
  GI50: 70.3 µM (inactive)
HCT-15
  GI50: > 100 µM
NCI-H460
  GI50: 91.6 µM (inactive)
SK-MEL-2
  GI50: 37.7 µM (inactive)
OVCAR-5
  GI50: > 100 µM (inactive)
K562
  GI50: 90.6 µM (inactive)
CAKI-1
  GI50: 25.9 µM (inactive)
RXF 393
  GI50: 28.9 µM (inactive)
SF-268
  GI50: 3.28 µM (inactive)
UACC-257
  GI50: > 100 µM (inactive)
BT-549
  GI50: 35.5 µM (inactive)
NCI-H226
  GI50: 28.3 µM (inactive)
MDA-MB-435
  GI50: > 100 µM (inactive)

## NC1=Nc2cc(C(F)(F)F)ccc2Sc2nc3ccccc3n21
KM12
  GI50: > 37 µM (inactive)
SW-620
  GI50: > 100 µM (inactive)
LOX IMVI
  GI50: 4.85 µM (inactive)
Hs-578T
  GI50: 42.1 µM (inactive)
NCI-H522
  GI50: 10.4 µM (inactive)
SK-OV-3
  GI50: 37.5 µM (inactive)
ACHN
  GI50: > 78.9 µM (inactive)
HCT-15
  GI50: > 100 µM
NCI-H460
  GI50: 10.1 µM (inactive)
SK-MEL-2
  GI50: 55.8 µM (inactive)
OVCAR-5
  GI50: > 52.8 µM (inactive)
K562
  GI50: 5.75 µM (inactive)
CAKI-1
  GI50: 84.9 µM (inactive)
RXF 393
  GI50: > 53.5 µM (inactive)
SF-268
  GI50: 16.6 µM (inactive)
UACC-257
  GI50: 41.2 µM (inactive)
BT-549
  GI50: > 100 µM (inactive)
NCI-H226
  GI50: 12.1 µM (inactive)
MDA-MB-435
  GI50: > 100 µM (inactive)

## [N-]=[N+]=NC(c1ccccc1)(c1ccccc1)c1ccccc1
KM12
  GI50: 18.2 µM (inactive)
SW-620
  GI50: 17.7 µM (inactive)
LOX IMVI
  GI50: 19.1 µM (inactive)
Hs-578T
  GI50: 22.8 µM (inactive)
NCI-H522
  GI50: 16.5 µM (inactive)
SK-OV-3
  GI50: 29.4 µM (inactive)
ACHN
  GI50: 15.7 µM (inactive)
HCT-15
  GI50: 18.1 µM
NCI-H460
  GI50: 16.6 µM (inactive)
SK-MEL-2
  GI50: 15.5 µM (inactive)
OVCAR-5
  GI50: 16 µM (inactive)
K562
  GI50: 14.8 µM (inactive)
CAKI-1
  GI50: 17.4 µM (inactive)
RXF 393
  GI50: 15.7 µM (inactive)
SF-268
  GI50: 18.5 µM (inactive)
UACC-257
  GI50: 16 µM (inactive)
BT-549
  GI50: 19.7 µM (inactive)
NCI-H226
  GI50: 17.3 µM (inactive)
MDA-MB-435
  GI50: 19.1 µM (inactive)
